According to patent publication US20240207216A1, “COMPOSITIONS AND METHOD FOR TREATING GUT PERMEABILITY CAUSED BY HYDROGEN SULFIDE PRODUCING BACTERIA” (UNM RAINFOREST INNOVATIONS, priority 2022, published 2024):

How the values were obtained:
Type in all cases: cell-based, murine
[1] = test system: p-p70S6K; experiment: DSV-induced p-P70S6K, Western blot in RAW cells; settings: 1 h before DSV 4 h, DSV alone 1.96±0.20
Protocol: (§1) RAW 264.7 murine macrophage-like cells were grown in DMEM+10% FBS without any use of antibiotics or antimycotics. Cells were grown at 37° C. in a humidified incubator with 5% CO2. Prior to the day of infection, 8×10^5 cells were plated in a six-well plate and infected with DSV at multiplicity of infection 20 (MOI 20) for various times. For drug treatments, cells were incubated with LY294002 at 10 μM or 50 μM for one hour followed by DSV infection for 30 minutes or four hours. For TL2-C29 treatment, cells were incubated with the inhibitor at 200 μM for three hours followed by infection with DSV for four hours.
(§2) Cells were lysed in Lysis buffer containing protease and phosphatase inhibitors (Thermo Fisher Scientific, Inc., Waltham, MA) for 20 minutes at 4° C. Lysates were centrifuged at 12,000 rpm for five mins at 4° C. and supernatants were collected. Protein concentration in the supernatants was determined with Bradford reagent (Bio-Rad Laboratories, Inc., Hercules, CA). 50 μg of protein samples were run on SDS-PAGE (4-20% tris-glycine) and transferred to nitrocellulose membranes. Membranes were blocked in 5% milk in PBS-T (0.1% Tween 20) for 30 minutes followed by overnight incubation in primary antibodies in cold room. […]

[2] = test system: p-p65 NF-κB; experiment: DSV-induced phospho-p65 NF-κB, Western blot in RAW cells; settings: 50 μM pre-treatment, DSV 30 minutes; DSV alone 3.54±0.59
Protocol: FIG. 13. LY294002 inhibits DSV-induced activation of PI3K/Akt/TNF pathway. (A) Quantification of secreted TNF-α. (B) Cells were treated with LY at either 10 μM or 50 μM for one hour before infection with DSV for four hours. Protein lysate was analyzed for iNOS expression. (C) Cells were pretreated with or without LY 50 μM followed by infection with DSV for 30 minutes and protein samples were analyzed for p-p65 NF-κB and total NF-κB. (D) Blots were quantified by analyzing the ratio of p-NF-κB/NF-κB. Values were normalized and compared to control. Data represents Mean±SEM from at least three independent experiments. Values were normalized to control. One-way ANOVA was used to determine the statistical significance. Values were compared to DSV, with a post-hoc Dunnett's test. *p<0.05, **p<0.01, ***p<0.001.
RAW 264.7 murine macrophage-like cells were grown in DMEM+10% FBS without any use of antibiotics or antimycotics. Cells were grown at 37° C. in a humidified incubator with 5% CO2. […]
Cells were lysed in Lysis buffer containing protease and phosphatase inhibitors (Thermo Fisher Scientific, Inc., Waltham, MA) for 20 minutes at 4° C. […] Protein concentration in the supernatants was determined with Bradford reagent (Bio-Rad Laboratories, Inc., Hercules, CA). […]

[3] = test system: p-Akt/Akt; experiment: DSV-induced Akt phosphorylation, Western blot in RAW cells; settings: 1 h before DSV 4 h, DSV alone 4.88±1.31
Protocol: as §1
(§3) Cells were lysed in Lysis buffer containing protease and phosphatase inhibitors (Thermo Fisher Scientific, Inc., Waltham, MA) for 20 minutes at 4° C. Lysates were centrifuged at 12,000 rpm for five mins at 4° C. and supernatants were collected. Protein concentration in the supernatants was determined with Bradford reagent (Bio-Rad Laboratories, Inc., Hercules, CA). 50 μg of protein samples were run on SDS-PAGE (4-20% tris-glycine) and transferred to nitrocellulose membranes. Membranes were blocked in 5% milk in PBS-T (0.1% Tween 20) for 30 minutes followed by overnight incubation in primary antibodies in cold room. All antibodies except iNOS were purchased from Cell Signaling Technology (Danvers, MA): Actin (4970), p-AktS473(4060), p-Akt T308(13038), Akt (9272), p-P70S6K (9205), P70S6K (2708, TNF-α (19948). iNOS antibody was purchased from Abcam (Cambridge United Kingdom). Antibodies were diluted as recommended by the manufacturer. The following day, blots were washed with PBS-T and incubated with secondary antibodies (Cell Signaling Technology, Danvers, MA) at room temperature for one hour (dilution of 1:2000) and developed using enhanced chemiluminescence HRP signal (Thermo Fisher Scientific, Inc., Waltham, MA).
(§4) All graphs were generated using PRISM 9.4.1 GraphPad Software Inc., San Diego, CA). Data is plotted as Mean±SEM relative to control. Each experiment was conducted at least three independent times. […]

[4] = test system: secreted TNF-α; experiment: DSV-induced secreted TNF-α, Western blot of RAW cell culture supernatant; settings: 1 h before DSV 4 h, DSV alone 18.73±6.21
Protocol: FIG. 12. LY294002 inhibits DSV-induced activation of PI3K/Akt/TNF pathway. (A) RAW cells were treated with LY at either 10 μM or 50 μM for one hour before infection with DSV for four hours. Cells were lysed and protein lysate was prepared. Fifty μg of protein lysate was separated on SDS-PAGE and analyzed for p-Akt, Akt, TNF, iNOS, p-p70S6K, and total p70S6K by Western blotting. Actin was used as a loading control. (B) Quantification of p-Akt-Akt Western blot. (C) Quantification of p-P70/P70 Western blot. (D) Quantification of TNF-α/actin Western blot. (E) Post-infection, RAW cell culture supernatant was collected and proteins were precipitated using ethanol precipitation. Proteins were resuspended in PBS and 50 μg of proteins were loaded on SDS-PAGE and secreted TNF-α was detected using TNF-α antibody. Actin was used as a loading control.
as §1, §2

[5] = test system: iNOS; experiment: DSV-induced iNOS expression, Western blot in RAW cells; settings: 1 h before DSV 4 h, DSV alone 23.54±5.39
Protocol: as §1, §3, §4

[6] = test system: TNF-α; experiment: DSV-induced cellular TNF-α expression, Western blot in RAW cells; settings: 1 h before DSV 4 h, DSV alone 37.01±4.28
Protocol: as §1, §3, §4

## O=c1cc(N2CCOCC2)oc2c(-c3ccccc3)cccc12 [LY294002]
[1]; 10 μM
  p-P70/P70, normalized to control: 0.081±0.026
[1]; 50 μM
  p-P70/P70, normalized to control: 0.088±0.029
[2]
  p-NF-κB/NF-κB (p-p65), normalized to control: 1.91±0.54
[3]; 10 μM
  p-Akt/Akt, normalized to control: 0.52±0.11
[3]; 50 μM
  p-Akt/Akt, normalized to control: 0.40±0.09
[4]; 10 μM
  secreted TNF-α, normalized to control: 1.45±0.24
[4]; 50 μM
  secreted TNF-α, normalized to control: 1.34±0.57
[5]; 10 μM
  iNOS expression, normalized to control: 5.45±0.17
[5]; 50 μM
  iNOS expression, normalized to control: 2.28±0.58
[6]; 10 μM
  cellular TNF-α/actin, normalized to control: 13.42±2.13
[6]; 50 μM
  cellular TNF-α/actin, normalized to control: 6.044±2.139
